The source of these data is article PMC4179164, “Ophiobolin A from Bipolaris oryzae Perturbs Motility and Membrane Integrities of Porcine Sperm and Induces Cell Death on Mammalian Somatic Cell Lines” (Toxins, 2014).

Converted amounts (≈) assume the structure as drawn.

Series [1] deals with boar spermatozoa. The experiment in a line: Shivering tail beating induction in exposed sperm cells. It is filed as cell-based. On the procedure:
(§1) This phenomenon may indicate that the cell still produce ATP and NADH in the cytoplasm after the OPA treatment, which differs from the effect caused by cation channel forming alamethicin, which depletes the sperm cells from motility, plasma membrane integrity as well as NADH and ATP production at similar concentrations. To confirm the effect of OPA on the plasma membrane permeability, the viability staining with propidium iodide (PI) and calcein-AM was performed after one day incubation at room temperature, (similar conditions as the JC-1 staining) where the EC50 value appeared at 1.6 μg mL^−1, over twice the concentrations that depolarized the mitochondria (Table 1).
Microscopic area containing shivering sperm cell is enlarged at top right of the picture.

Series [2] in a line: Cell membrane permeability assay on motile sperm cells (PI staining). The series is classed as cell-based, boar. Particulars: boar (pig), motile boar spermatozoa (commercial extended boar semen); at 800 ng mL^−1 to 1600 ng mL^−1, 37 °C, 2 h. On the procedure: (§2) To test the effect of OPA exposure on sperm cells in physiological conditions (swimming at 37 °C) the plasma membrane disruption on motile sperm cells was measured with the viability PI stain, where the loss of plasma membrane integrity was detected as appearance of red color stained nuclei in the damaged cells. In this assay, sperm cells were exposed to OPA at 37 °C and motility of the exposed sperm cells was induced and maintained for 2 h.
(§3) Cell membrane permeability assay on motile sperm cells was inspected by staining with PI (Molecular Probes, Eugene, OR, USA) in sperm cells induced to swim by shaking at 37 °C. One hundred and fifty μL aliquots of commercial extended boar semen with a density of 27 × 10^6 sperms mL^−1 were pipetted into microtiter plate wells and serially diluted methanolic solution of OPA were added in the concentration range of 200 ng mL^−1 to 4 μg mL^−1 including 6 levels and an additional methanol blank, and pre-incubated for 2 h on orbital shaker (Innova 5000 new Brunswick Scientific, Enfield, CT, USA) (160 rpm) at 37 °C. Four parallel measurements were done for each dilution. One ml PI solution (1 mg mL^−1 in Dulbeco’s phosphate buffered saline) was mixed with 3 mL of […] Dulbeco’s phosphate buffered saline. One hundred and fifty μL of this stain mixture was added to 150 μL of exposed boar semen. This suspension was incubated for 15 min at 37 °C in dark and measured using a microplate reader (Fluoroskan Ascent, Thermo Scientific, Vantaa, Finland) at excitation and emission wavelengths of 544 nm and 600 nm, respectively. For observing plasma membrane damage by PI staining frozen-thawed semen was used as a positive control (for mortality of 100%) representing the maximal fluorescence emitted by the cells permeable to PI and Dulbeco’s phosphate buffered saline was applied as background control (blank). Loss of viability in the sample was calculated as described in Alm et al.. The frozen sample represented 100% loss of viability. The assay was calibrated with triclosan (Sigma Chemical Co., St. Louis, MO, USA), in 5 parallel tests, the EC50 was 2 μg mL^−1 (SD ± 0.6). Cell membrane permeability assay on static sperm cells at room temperature was carried out by viability staining with PI and calcein-AM (Molecular Probes, Eugene, OR, USA) according to Hoornstra et al. in same concentration range and levels described above.

Series [3] deals with boar spermatozoa. Described as above. Particulars: for EC50: Spermatozoa. The series is classed as cell-based. On the procedure: as §2, §3
For series [4], the system named is boar spermatozoa. The experiment in a line: Cell membrane permeability assay on static sperm cells (PI and calcein-AM staining). The series is classed as cell-based. Particulars: 24 h, read-out: Toxic endpoint EC50, Permeability to PI on static cells. As for the experimental part: as §1
Cell membrane permeability assay on motile sperm cells was inspected by staining with PI (Molecular Probes, Eugene, OR, USA) in sperm cells induced to swim by shaking at 37 °C. […] This suspension was incubated for 15 min at 37 °C in dark and measured using a microplate reader (Fluoroskan Ascent, Thermo Scientific, Vantaa, Finland) at excitation and emission wavelengths of 544 nm and 600 nm, respectively. For observing plasma membrane damage by PI staining frozen-thawed semen was used as a positive control (for mortality of 100%) representing the maximal fluorescence emitted by the cells permeable to PI and Dulbeco’s phosphate buffered saline was applied as background control (blank). […]

The test system of series [5] is human umbilical vein endothelial cells (HUVECs). Particulars: cited from earlier work.
Series [6] is described as follows: Somatic cell toxicity assay (resazurin reduction), PK-15. Particulars: pig, PK-15 cells (porcine kidney tubular epithelial cell line); read-out: Toxic endpoint EC50, Cytotoxicity, PK-15 cells. The series is classed as cell-based, porcine. On the procedure:
(§4) Viability assays, based on resazurin-resorufin transformation, represent excellent correlation to generally used reference assays, such as formazan- and tritiated thymidine based methods. In our experiments, proliferating murine neuroblastoma (MNA), feline fetus lung (FFL) and porcine kidney (PK-15) cells were treated with OPA. […] These values were remarkably less than the concentrations causing sperm toxicity and motility inhibition.
(§5) Cytotoxicity against somatic cells was tested with feline fetus lung cells (FFL) cultivated as described by Andersson et al. and murine neuroblastoma cells (MNA) as described by Kulonen et al. as well as porcine kidney tubular epithelial cell line (PK-15), cultured as reported earlier. All somatic cell lines were maintained in an atmosphere of 95% air, 5% CO2 and 95% relative humidity at 37 °C on RPMI 1640 (complete medium) in a cell culture cabinet (Heracell 150i; Thermo Fisher Scientific, Vantaa, Finland). The detached cells were seeded onto 96 well microtiter plates and exposed to the purified OPA, the final concentration of which ranged from 48.8 ng mL^−1 to 25 μg mL^−1 containing 10 levels in methanol. […] Then, the plates were analyzed by a microtiter plate reader (Fluoroskan Ascent, Thermo Scientific, Vantaa, Finland) at the excitation and emission wavelengths of 544 nm and 590 nm, respectively. […]
For orientation: The colour change of resazurin is a common sign of viable cells or microbes.

The subject of series [7] is porcine kidney (PK-15) cells. The description is as above. The series is classed as cell-based. Particulars: Sus scrofa; PK-15 cells, resazurin; read-out: IC50, cell proliferation. On the procedure: as §4, §5
The subject of another series is L1210 cell line. Conditions: cited from earlier work.
Series [8] has as its system murine neuroblastoma (MNA) cells. In words: Somatic cell toxicity assay (resazurin reduction), MNA. It is filed as cell-based. Particulars: Mus musculus, read-out: IC50, cell proliferation. As for the experimental part:
as §4, §5

In general, EC50 refers to the concentration at which the effect is half-maximal. Broadly, the viability is a per cent measure of how many cells are alive, often set against a control. The low end stands for more harm to the cells, the high end for less harm to the cells. On to `CC(C)=C[C@H]1C[C@H](C)[C@]2(CC[C@]3(C)C[C@H]4[C@H](C(=O)C[C@@]4(C)O)/C(C=O)=C\C[C@H]32)O1` [OPA, ophiobolin A], for which the EC50 is 0.5 µg/mL (≈ 1.25 µM) with boar spermatozoa [1] (Spermatozoa, read-out: Toxic endpoint EC50, Shivering tail beating induction); 1.6 µg/mL (≈ 3.99 µM) in the series with boar spermatozoa [3] (2 h, read-out: Toxic endpoint EC50, Permeability to PI on motile cells); 0.8 to 1.6 µg/mL (≈ 2 to 3.99 µM) with boar spermatozoa [3] (37 °C, motility maintained for 2 h, read-out: EC50, loss of plasma membrane integrity (PI) on motile sperm cells); 1.6 µg/mL (≈ 3.99 µM) in the series with boar spermatozoa [4]. Besides, in the series on boar spermatozoa [1] (exposure at room temperature), the “Concentration inducing shivering tail beating with depolarisation of mitochondria” value was below 1 µg/mL. For the same molecule, the viability at 2 h in series [2] lay within 38 to 73%. In addition, the “Concentration lethal to the sperm cells (disrupting the plasma membrane)” value with boar spermatozoa [3] (motile at 37 °C, after 2 h) is “below 2000 ng/mL”. Besides, the “Concentration inducing lethal damage (loss of plasma membrane integrity)” value in the series with boar spermatozoa [3] (swimming at 37 °C, short period) was below 1 µg/mL. The “IC50, reduction in the amount of viable cells” value in series [5] is 32 µg/mL. Further, in [6], the EC50 at 3 days was 0.1 µg/mL (≈ 0.25 µM). Also, the IC50 in series [7] is 0.0488 to 0.0976 µg/mL (≈ 0.122 to 0.244 µM); in [8] it was below 0.0488 µg/mL. Besides, in the series on L1210 cell line, the “IC50, induced cell death” value was 120 µg/mL (≈ 300 µM).
